{"source": "patent US10827753B2", "about": "“Compositions and methods for controlling nematodes” (Monsanto Technology LLC, priority 2007, dated 2020)", "key": {"Meloidogyne incognita [1]": {"test_system": "Meloidogyne incognita", "assay": "M. incognita miniaturized greenhouse assay on cucumber seedlings (root galling)", "assay_type": "in vivo", "design": "key to 1 ppm gall ratings / 1 ppm gall rating: mean of 3 gall ratings: 0=0-5%, 1=6-20%, 2=21-50%, 3=51-100% root galled", "conditions": "for 1 ppm gall ratings: Table 1B test e", "summary_of_the_method": "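Compound in acetone/Triton X100 stock (5 mg/mL) diluted into water with 0.015% Triton X100 and applied to sand-planted sprouted cucumber seedlings; inoculated with 500 M. incognita eggs two days after planting. Roots harvested 10–12 days later; galling scored 0–3 by % root mass galled, averaged over triplicates, plus visual root phytotoxicity rating.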"}, "[2]": {"test_system": "Meloidogyne incognita (RKN)", "assay": "Seed treatment test of root knot nematode on cucumber plants", "assay_type": "in vivo", "method": "(§1) For a given concentration the chemical is dissolved in 500 ul of acetone and one gram of cucumber seed (RKN test) or soybean seed (SCN test) is added (e.g., 20 mg active ingredient in 500 ul acetone plus 1 gram of seed). The seed solutions are agitated until all seeds were thoroughly covered with the chemical solution. The acetone is then allowed to evaporate by air drying the seeds. The seeds are planted in 2-inch pots containing sandy soil and then the pots are inoculated with 1000 Meloidogyne incognita (RKN) or 1000 Heterodera glycines (SCN) eggs per pot three days after planting. Plants are rated for galling 14 days after egg inoculation for RKN or 28 days after egg inoculation for SCN."}, "[3]": {"test_system": "CD-1/Swiss derived albino mice", "assay_type": "in vivo", "conditions": "500 mg/kg oral, three female mice, observed up to 14 days", "method": "Acute oral toxicity testing was performed in mice in accordance with test method P203.UDP, as administered by Eurofins/Product Safety Laboratories (Dayton, N.J.). CD-1/Swiss derived albino mice were obtained and group housed in suspended solid bottom caging. The mice were fed rodent chow and filtered tap water was supplied ad libitum. Following acclimation to the laboratory setting, a group of animals was fasted overnight by removing food from the cages. After the fasting period, three female mice were selected based on vitality and initial body weights. The individual compound doses were calculated from these body weights.\nThe test substance was prepared as a 1% (50 mg/kg) or 5% (500 mg/kg) weight to weight (w/w) mixture in a 0.5% w/w solution of carboxymethylcellulose (CMC) in distilled water. A tissue homogenizer was used to create a homogeneous mixture. A dose of 50 or 500 mg/kg was administered to three healthy mice per dose level by oral intubation using a ball-tipped gavage needle attached to a syringe. After administration, the animals were returned to their cages, and feed was replaced immediately after dosing.\nBody weights were recorded prior to initiation and on Days 7 and 14 or a soon as possible after death."}, "[4]": {"test_system": "sting (Belonolaimus longicaudatus) nematodes", "assay": "Sting nematode bench top soil assay", "assay_type": "in vivo", "method": "Populations of sting (Belonolaimus longicaudatus) nematodes are maintained on St. Augustine turf grass on soil in 15-cm pots. At test initiation the turf is removed from the pots and the soil containing nematode eggs, juveniles, and adults is subdivided into pots each containing a volume of 125 cm^3′ The compounds to be tested are dissolved in 3 ml of acetone using 3, 6, or 15 mg to achieve equivalent surface area application rates of 2, 4, or 10 kg/ha, respectively. The 3 ml acetone stock solution is added to 30 ml of water, and 5 ml of that solution is used to drench each of 6 replicate test pots prepared as described above. The treated pots containing nematodes are incubated in the laboratory at ambient temperature of approximately 25° C. After 3 days the soil from each pot is washed onto a modified Baermann apparatus comprised of a screen supporting a layer of filter paper on which the soil sample is placed and set in a dish of water. The samples are then incubated at 25° C. for 24 hours to allow the live nematodes to migrate through the paper and screen and into a water reservoir to be collected for counting with a light microscope. Nematodes that have been killed or immobilized by the test compounds are not able to migrate into the reservoir."}, "[5]": {"test_system": "caspase-3 in rat hepatoma derived H4IIE cells", "assay": "Caspase-3 activity (DEVD-AMC) after compound exposure in H4IIE cells", "assay_type": "cell-based", "conditions": "concentrations up to 300 μM", "method": "Caspase 3 cleaves the tetrapeptide between D and AMC, thus releasing the fluorogenic […] AMC. Following the test article exposure to cells in 96-well plates, medium was aspirated from plates and PBS added to each well. Plates were stored at −80° C. to lyse cells and store samples until further analysis. On the day of analysis, plates were removed from freezer and thawed. Caspase buffer with fluorescent substrate was added to each well and incubated at room temperature for one hour. AMC release was measured in a spectrofluorometer at an excitation wavelength of 360 nm and an emission wavelength of 460 nm. Values are expressed as relative fluorescent units (RFU)."}, "root knot nematode": {"test_system": "root knot nematode", "assay": "Pre-plant incorporated (PPI) greenhouse test of root knot nematode on cucumber plants", "assay_type": "in vivo, Meloidogyne incognita", "conditions": "Meloidogyne incognita, fourteen day pre-plant incorporated, test b, read-out: percent control (galling reduction) relative to the control blank treatment; for pest or weed control at 4000 g/ha: 4 kg/ha rate; for pest or weed control at 8000 g/ha: 8 ka/ha rate", "description": "The PPI test examines the effect of pre-incorporation of compounds in soil and longer aging to simulate in furrow methods of nematicide application in the field. The PPI test exposes compounds to a higher volume of soil and drying which can result in more severe soil binding. Compounds are also aged for longer periods which can lead to more extensive biotic and abiotic degradation further limiting activity.\nThe chemically treated soil (sandy soil mix) for all treatment days (e.g., 7 days, 14 days, 21 days) treatments is potted into their appropriate pots. On the same day the 7 day treatment pots are seeded. One week later eggs are applied and 14 days after egg application the test is harvested. The 14 day treatments are planted 7 days after the first planting. The 14 day planting and 7 day inoculation happen on the same day. One week later the 14 day treatments are inoculated with eggs. These are harvested 14 days after the inoculation. The 21 day treatments are planted 14 days after the first planting. The 14 day inoculation and 21 day planting are done on the same day. One week later the 21 day plants are inoculated with eggs. The 7 day treatment is harvested the same day as the 21 day inoculation. Fourteen days after inoculation the 21 day plants are harvested.\nFor each compound a stock is prepared using 4 mg material in 4 ml of acetone. The soil is mixed by placing 80 ml of field soil and 320 ml of sand in a plastic bag and mixing well. The formulation for treatment is done by adding 2.13 ml (8 kg/ha rate), 1.06 ml (4 kg/ha rate) or 0.53 ml (2 kg/ha rate) to a vial and raising it with 10 ml in 0.05%×100. Soil is then treated by adding the entire 10 ml to the 400 ml of mix in the bag. The treated soil is immediately mixed well in the sealed bag to distribute the compound evenly. Approximately 95 ml is used to fill each 2-inch square pot up to the top with some soil compression and flattening. For each compound and for the control treatments 4 pots are filled. All pots are watered until moist but with no run-out through the bottom.\nThe PPI test simulates 8, 4 and 2 kg/ha rates incorporated 15 cm deep in the field and is equivalent to the 2, 1 and 0.5 kg/ha drench application rates in the standard 2-inch pot cucumber greenhouse assay."}, "Meloidogyne incognita [6]": {"test_system": "Meloidogyne incognita", "assay": "Summer field evaluation of pre-plant incorporated compounds on squash", "assay_type": "in vivo", "summary_of_the_method": "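PPI simulation: compound in acetone/Triton X-100 and water mixed into 80% sand/20% silt loam with chopped galled tomato roots, filling top 15 cm of 6 replicate field plots. M. incognita eggs/larvae (100 k per plot) injected 5 cm deep; three-week-old squash cv. Liberator III planted 4 days after treatment.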"}, "[7]": {"test_system": "Heterodera glycines (SCN)", "assay": "Seed treatment test of soybean cyst nematode on soybean plants", "assay_type": "in vivo", "conditions": "test a", "method": "as §1"}, "mice": {"test_system": "mice", "conditions": "cited from earlier work"}}, "note": "Marks after values point to notes of the source that are not given here.", "data": [{"molecule": "Fc1ccc(-c2cnc(-c3cccs3)o2)cc1", "note": "[compound 4775]", "values": [{"measurement": "8 ppm gall ratings", "setting": "Meloidogyne incognita [1]; 8 ppm, average of triplicate gall rating, scale 0-3 (% root mass galled)", "result": "0 (0=0-5%)"}, {"measurement": "percent control (galling reduction) relative to the control blank treatment", "setting": "[2]; 20 mg ai/gram seed, cucumber seeds", "result": 77, "unit": "%"}, {"measurement": "mortality, signs of gross toxicity and behavioral changes", "setting": "[3]", "result": "all animals survived, gained body weight, and appeared active and healthy"}, {"measurement": "Number of nematodes recovered from treated soil after 3 days incubation with the compound", "setting": "[4]; 2 kg/ha", "result": 15}, {"measurement": "Number of nematodes recovered from treated soil after 3 days incubation with the compound", "setting": "[4]; 4 kg/ha", "result": 7}, {"measurement": "Number of nematodes recovered from treated soil after 3 days incubation with the compound", "setting": "[4]; 10 kg/ha", "result": 4}]}, {"molecule": "Fc1cc(Cl)ccc1-c1cnc(-c2cccs2)o1", "note": "[compound 5915]", "values": [{"measurement": "1 ppm gall ratings", "setting": "Meloidogyne incognita [1]", "result": "0.33^e"}, {"measurement": "induction of caspase-3 (apoptosis marker)", "setting": "[5]", "result": "no induction of caspase-3"}, {"measurement": "pest or weed control at 4000 g/ha", "setting": "root knot nematode", "result": 70, "unit": "%"}, {"measurement": "pest or weed control at 8000 g/ha", "setting": "root knot nematode", "result": 99, "unit": "%"}]}, {"molecule": "Cc1cc(Cl)ccc1-c1nsc(-c2ccco2)n1", "note": "[compound 5938]", "values": [{"measurement": "1 ppm gall ratings", "setting": "Meloidogyne incognita [1]", "result": "0.67^e"}, {"measurement": "0-3 vigor 16 DAP", "setting": "Meloidogyne incognita [6]; 4 kg (kg/ha) PPI, squash", "result": 2.5}, {"measurement": "0-3 vigor 21 DAP", "setting": "Meloidogyne incognita [6]; 4 kg (kg/ha) PPI, squash", "result": 2.7}, {"measurement": "feeder root (3 = ave) 31 DAP", "setting": "Meloidogyne incognita [6]; 4 kg (kg/ha) PPI, squash", "result": 2.7}, {"measurement": "gall % 31 DAP", "setting": "Meloidogyne incognita [6]; 4 kg (kg/ha) PPI, squash", "result": 9, "unit": "%"}, {"measurement": "root wgt (g) 31 DAP", "setting": "Meloidogyne incognita [6]; 4 kg (kg/ha) PPI, squash", "result": 24.1, "unit": "g"}, {"measurement": "top wgt (lbs) 31 DAP", "setting": "Meloidogyne incognita [6]; 4 kg (kg/ha) PPI, squash", "result": 1.60, "unit": "lbs"}, {"measurement": "total fruit (lbs)", "setting": "Meloidogyne incognita [6]; 4 kg (kg/ha) PPI, squash", "result": 1.22, "unit": "lbs"}, {"measurement": "control of M. incognita (in words)", "setting": "Meloidogyne incognita [6]; PPI application at 4 kg/ha", "result": "excellent control"}, {"measurement": "induction of caspase-3 (apoptosis marker)", "setting": "[5]", "result": "no induction of caspase-3"}, {"measurement": "pest or weed control at 4000 g/ha", "setting": "root knot nematode", "result": 90, "unit": "%"}, {"measurement": "pest or weed control at 8000 g/ha", "setting": "root knot nematode", "result": 100, "unit": "%"}]}, {"molecule": "abamectin", "values": [{"measurement": "percent cyst reduction relative to control blank treatment", "setting": "[7]; 0.375 mg al/gram seed", "result": "−14^a percent"}, {"measurement": "percent cyst reduction relative to control blank treatment", "setting": "[7]; 1.5 mg al/gram seed", "result": "−24^a percent"}, {"measurement": "oral LD50 in mice", "setting": "mice", "result": 13.6, "unit": "mg/kg"}, {"measurement": "percent control (galling reduction) relative to the control blank treatment", "setting": "[2]; 10 mg ai/gram seed, cucumber seeds (positive control)", "result": 84, "unit": "%"}]}]}
